Laboratory results published in ChEMBL document CHEMBL1141818, “Annonaceous acetogenins: recent progress” (J Nat Prod, 1999).
Values after ≈ are worked out from the molar mass of the structure shown.

Tests used:
[1] = Toxicity in brine shrimp; format: organism-based; conditions: artemia, in vivo
A549 = test: Cytotoxicity against human A549 cells; format: functional; conditions: for EC50: Homo sapiens, A549, read-out: ED50 (the source's name)
MCF7 = test: Cytotoxicity against human MCF7 cells; format: functional; conditions: for EC50: Homo sapiens, MCF7, read-out: ED50 (the source's name)
HT-29 = test: Cytotoxicity against human HT-29 cells; format: functional; conditions: Homo sapiens, HT-29; read-out: ED50 (the source's name)
PC-3 = test: Cytotoxicity against human PC-3 cells; format: functional; conditions: for EC50: Homo sapiens, PC-3, read-out: ED50 (the source's name)
A498 = test: Cytotoxicity against human A-498 cells; format: functional; conditions: Homo sapiens, A498; read-out: ED50 (the source's name)
MIA PaCa-2 = test: Cytotoxicity against human MIA PaCa2 cells; format: functional; conditions: for EC50: Homo sapiens, MIA PaCa-2, read-out: ED50 (the source's name)

Row | Compound | LC50 [1] [µg/mL] | EC50 (A549) [µg/mL] | ED50 (MCF7) | EC50 (HT-29) [µg/mL] | EC50 (PC-3) [µg/mL] | EC50 (A498) [µg/mL] | EC50 (MIA PaCa-2) [µg/mL] | EC50 (MCF7) [µg/mL] | ED50 (PC-3) [×10⁻⁸ ug/ml] | ED50 (A549) [×10⁻⁸ ug/ml] | ED50 (MIA PaCa-2) [×10⁻⁴ ug/ml]
1 | CCCCCCCCCCCCC(=O)C[C@@H]1C[C@@H](O)[C@@H](CC[C@H](O)[C@@H]2CC[C@@H](CCCCC[C@@H](O)CC3=C[C@H](C)OC3=O)O2)O1 [GONIOTRIOCIN] | 2.7 (≈ 4.24 µM) | 0.033 (≈ 0.0518 µM) | 3.3 ×10⁻⁵ ug/ml | 0.0012 (≈ 0.00188 µM) | 0.26 (≈ 0.408 µM) | 1.1 (≈ 1.73 µM) | 1.4 (≈ 2.2 µM) | – | – | – | –
2 | CCCCCCCCCC/C=C\CC[C@@H](O)[C@H]1CC[C@H]([C@H](O)CCCCCC(=O)CCCC[C@@H]2CC(CC(C)=O)C(=O)O2)O1 (stereo not given in full) | 0.44 (≈ 0.709 µM) | > 1 | – | > 1 | 0.032 (≈ 0.0515 µM) | > 1 | 0.22 (≈ 0.354 µM) | > 1 | – | – | –
3 | CCCCCCCCCCCC/C=C\CC[C@@H](O)[C@H](O)CCCCCCC(=O)CCCCCCCC1=C[C@H](C)OC1=O [ANNOJAHNIN] | 11 (≈ 18.6 µM) | 1.5 (≈ 2.54 µM) | – | 0.059 (≈ 0.0998 µM) | 0.016 (≈ 0.0271 µM) | 4.9 (≈ 8.29 µM) | 0.023 (≈ 0.0389 µM) | 2.8 (≈ 4.74 µM) | – | – | –
4 | CCCCCCCCCCCC[C@@H](O)[C@H]1CC[C@H]([C@H](O)CCCCCC(O)CCCCCCC2=C[C@H](C)OC2=O)O1 (stereo not given in full) | 8.9 (≈ 15.3 µM) | 3.9 (≈ 6.71 µM) | – | 1.7 (≈ 2.93 µM) | 2.7 (≈ 4.65 µM) | 2.2 (≈ 3.79 µM) | 2.9 (≈ 4.99 µM) | 2.2 (≈ 3.79 µM) | – | – | –
5 | CCCCCCCCCCCC[C@@H](O)[C@H]1CC[C@H]([C@H](O)CCC(O)CCCC(O)CCC[C@@H](O)CC2=C[C@H](C)OC2=O)O1 (stereo not given in full) [MURICAPENTOCIN] | 1.8 (≈ 2.94 µM) | 0.19 (≈ 0.31 µM) | – | 0.071 (≈ 0.116 µM) | 0.45 (≈ 0.734 µM) | 1.7 (≈ 2.77 µM) | 0.05 (≈ 0.0816 µM) | 1.9 (≈ 3.1 µM) | – | – | –
6 | CCCCCCCCCCCC[C@@H](O)[C@H]1CC[C@H]([C@H](O)CCCC(O)C(O)CCCCC[C@@H]2CC(CC(C)=O)C(=O)O2)O1 (stereo not given in full) | 4.8 (≈ 7.83 µM) | < 0.01 | – | < 0.01 | 1.3 (≈ 2.12 µM) | 0.12 (≈ 0.196 µM) | < 0.01 | 0.61 (≈ 0.995 µM) | – | – | –
7 | CCCCCCCCCCCC[C@@H](O)[C@H]1CC[C@@H]([C@@H]2CC[C@@H](CCCCCCC[C@@H](O)CC3=C[C@H](C)OC3=O)O2)O1 [ROLLIDECIN C] | – | 1.3 (≈ 2.25 µM) | – | 0.063 (≈ 0.109 µM) | 0.29 (≈ 0.501 µM) | 1.4 (≈ 2.42 µM) | 0.11 (≈ 0.19 µM) | 1.1 (≈ 1.9 µM) | – | – | –
8 | CCCCCCCCCCCC[C@H](O)[C@H]1CC[C@H]([C@H]2CC[C@H]([C@H](O)CCCCCCCC[C@@H](O)CC3=C[C@H](C)OC3=O)O2)O1 [SQUAMOTACIN] | – | – | – | – | – | – | – | – | 1 | – | –
9 | CCCCCCCCCC[C@@H](O)[C@H]1CC[C@@H]([C@H]2CC[C@H]([C@H](O)CCCC[C@H](O)CCCCC[C@@H](O)CC3=C[C@H](C)OC3=O)O2)O1 | – | – | 1.9 ×10⁻⁸ ug/ml | 0.14 (≈ 0.219 µM) | 0.38 (≈ 0.595 µM) | 0.01 (≈ 0.0157 µM) | 0.2 (≈ 0.313 µM) | – | – | 1 | –
10 | CCCCCCCCCCCC[C@@H](O)[C@H]1CC[C@H]([C@H]2CCC[C@@H]([C@@H](O)CCCCCCC[C@@H](O)CC3=C[C@H](C)OC3=O)O2)O1 [MUCONIN] | – | 0.0045 (≈ 0.00722 µM) | 2.4 ×10⁻⁴ ug/ml | 0.39 (≈ 0.626 µM) | 0.58 (≈ 0.931 µM) | 0.18 (≈ 0.289 µM) | – | – | – | – | 5.4
11 | CCCCCCCCCCCCCCCCC[C@@H](O)[C@H]1C[C@H](O)[C@H]([C@H]2CC[C@H]([C@H](O)CCCCCC3=C[C@H](C)OC3=O)O2)O1 [MUCOXIN] | – | 0.036 (≈ 0.0578 µM) | – | 0.61 (≈ 0.979 µM) | 0.31 (≈ 0.498 µM) | 0.84 (≈ 1.35 µM) | 0.33 (≈ 0.53 µM) | 0.0037 (≈ 0.00594 µM) | – | – | –
12 | CCCCCCCCCCCC[C@@H](O)[C@H]1CC[C@@H]([C@@H]2CC[C@@H](CCCCCCCCC[C@@H](O)CC3=C[C@H](C)OC3=O)O2)O1 [ROLLIDECIN D] | – | 5.9 (≈ 9.72 µM) | – | 5.4 (≈ 8.9 µM) | 1.9 (≈ 3.13 µM) | 4 (≈ 6.59 µM) | 1 (≈ 1.65 µM) | 5 (≈ 8.24 µM) | – | – | –
13 | CCCCCCCCCCCCCC/C=C\[C@@H](O)C[C@H](O)[C@@H]1CC[C@@H](CCCCC[C@@H](O)CC2=C[C@H](C)OC2=O)O1 [GONIOTRIONIN] | – | 0.0077 (≈ 0.0133 µM) | 5.3 ×10⁻⁶ ug/ml | 0.34 (≈ 0.587 µM) | 0.36 (≈ 0.622 µM) | 0.002 (≈ 0.00345 µM) | 0.0054 (≈ 0.00933 µM) | – | – | – | –
14 | CCCCCCCCCCCC[C@H](O)[C@@H]1CC[C@H]([C@H](O)CCCCCC(=O)CCCC[C@@H](O)CC2=C[C@H](C)OC2=O)O1 [MOSIN C] | – | 0.6 (≈ 1.01 µM) | – | > 1 | > 1 | > 1 | – | > 1 | – | – | 1.2
